TGI data for eight compounds are collected here from PubChem BioAssay (NCI).

Common to all, as to assay: NCI tumour cell line growth inhibition, 48 h
The test system of test [1] is SK-OV-3 ovarian.
Test [2] relates to HT29 colon.
Test [3] has as its system T-47D breast.
The subject of test [4] is NCI-H522 lung.
The subject of test [5] is SK-MEL-5 melanoma.
Test [6] relates to PC-3 prostate.
Test [7] has as its system U251 CNS.
In test [8] the test system is UACC-62 melanoma.
In test [9] the test system is NCI-H226 lung.
In test [10] the test system is HOP-62 NSCLC.
The subject of test [11] is MDA-MB-231 breast.
The subject of test [12] is CCRF-CEM leukemia.
Test [13] concerns 786-0 renal.
For test [14], the system named is SN12C renal.
In test [15] the test system is MDA-N.
Test [16] has as its system SR leukemia.
For test [17], the system named is TK-10 renal.
For test [18], the system named is K-562 leukemia.
The test system of test [19] is SNB-19 CNS.
The subject of test [20] is BT-549 breast.

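The compound was tested at five concentrations on cells cultured in 96-well plates, with a 48-hour exposure period. Definition used: TGI = concentration required for complete inhibition of growth.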 Bounds are passed on as bounds.

Turning to `CCOC(=O)C(/C=N\C(=S)Nc1ccc(Cl)c(Cl)c1)=C(/O)c1ccccc1`, the TGI is over 100 µM in test [1]; over 100 µM in test [2]; over 100 µM in test [3]; 26.1 µM in [4]; over 100 µM in test [5]; over 100 µM in [6]. In addition, the TGI is over 100 µM in [7]; over 100 µM in test [8]; over 100 µM in [9]; over 100 µM in [10]; 90.9 µM in test [11]; over 100 µM in test [12]. The TGI in test [13], in [14], in [15] and in test [16] was over 100 µM throughout.
Consider `O=C(CC(C(=O)c1ccco1)c1ccsc1)c1ccco1` (configuration not stated), for which the TGI in test [1], in test [2], in [3], in test [4], in test [5] and in test [7] was over 100 µM each time. Further, the TGI in [8], in [9], in test [17], in test [10], in test [11] and in [12] was over 100 µM in each case. The TGI in test [13], in test [14], in test [15], in test [16] and in test [18] was over 100 µM each time.
Take `COc1ccc2nc3ccc(OC)cc3c(SCc3ccc([N+](=O)[O-])cc3)c2c1`: the TGI in [1], in [2], in test [3], in test [4], in [6] and in test [8] was over 100 µM each time. In addition, the TGI in [9], in test [17], in test [10], in [11], in test [19] and in [12] was over 100 µM each time. Further, the TGI in test [13], in test [14], in test [15], in test [16] and in [18] was over 100 µM each time.
For the compound `CC1(C)O[C@@H]2[C@@H](COC(=O)c3ccccc3)C[C@@H](C#N)[C@@H]2O1`, the TGI in test [1], in test [2], in [3], in [4], in test [5] and in [6] was over 100 µM in each case. In addition, the TGI in [7], in test [8], in test [9], in test [17], in test [10] and in [11] was over 100 µM each time. Moreover, the TGI in [19], in [12], in [13], in [14], in test [20] and in test [16] was over 100 µM in each case. The TGI in [18] was over 100 µM.
`CC(OC(C)(C)C)[C@H](NC(=O)OC(C)(C)C)C(=O)O` (some centres not stated): the TGI in test [1], in [2], in test [3], in [4], in test [5] and in test [6] was over 100 µM each time. Moreover, the TGI in test [7], in test [8], in test [9], in test [17], in test [10] and in test [11] was over 100 µM throughout. The TGI in [19], in [12], in test [13], in [14], in [20] and in test [16] was over 100 µM in each case. The TGI in test [18] was over 100 µM.
Regarding `O=C1c2ccccc2NC(=O)C2C1C(c1ccccc1)CC2(O)c1ccccc1` (configuration not stated), the TGI was over 100 µM in [1]; over 100 µM in [2]; over 100 µM in test [3]; over 100 µM in test [5]; 74.3 µM in test [6]; over 100 µM in test [8]. For the same compound, the TGI in test [17] is 99.7 µM; in test [10], over 100 µM; in test [11], over 100 µM; in [19], over 100 µM; in [12], over 100 µM; in test [13] it was over 100 µM. Also, the TGI in test [14] and in [16] was over 100 µM each time.
Turning to `[O-][n+]1onc2c1CCC(=N\O)/C2=N/Nc1ccccc1`, the TGI in test [1], in test [2], in test [4], in test [5], in test [6] and in test [8] was over 100 µM in each case. Further, the TGI in [9], in [17], in test [10], in test [11], in test [19] and in test [12] was over 100 µM throughout. Besides, the TGI in [13], in test [14], in test [15], in test [16] and in test [18] was over 100 µM throughout.
`Nc1nc(N)c(C2=CCNCC2)c(=O)[nH]1`: the TGI in test [1], in test [2], in test [3], in test [4], in test [5] and in [6] was over 100 µM throughout. Besides, the TGI in test [7], in test [8], in test [9], in test [10], in test [11] and in [19] was over 100 µM throughout. Moreover, the TGI in test [12], in [13], in test [14], in [20], in test [16] and in [18] was over 100 µM each time.
